# Key:
# Assay type in all cases: in vivo
# Myzus persicae [1] = experiment: Myzus persicae test on cabbage; settings: cabbage leaves sprayed
# Description: (§1) Solvents: 78 parts by weight of acetone
# (§2) • 1.5 parts by weight of dimethylformamide Emulsifier: 0.5 part by weight of alkylaryl polyglycol ether
# (§3) To produce a suitable preparation of active compound, 1 part by weight of active compound is mixed with the stated amount of solvent and emulsifier, and the concentrate is diluted with emulsifier-containing water to the desired concentration.
# Cabbage leaves (Brassica oleracea) which are heavily infested by the green peach aphid (Myzus persicae) are treated by spraying with the active compound preparation of the desired concentration.
# (§4) After the desired period of time, the kill in % is determined. 100% means that all of the aphids have been killed; 0% means that none of the aphids have been killed. The kill rates determined are entered into Colby's formula (see above).
# Phaedon cochleariae = Phaedon cochleariae larvae test; settings: cabbage leaves sprayed
# Description: as §1, §2, §3
# Cabbage leaves (Brassica oleracea) are treated by spraying with the active ingredient formulation of the desired concentration and populated with larvae of the mustard beetle (Phaedon cochleariae) while the leaves are still moist.
# After the desired period of time, the kill in % is determined. 100% means that all beetle larvae have been killed; 0% means that none of the beetle larvae have been killed. The kill rates determined are entered into Colby's formula (see above).
# Tetranychus urticae = Tetranychus urticae test (OP-resistant/spray treatment); settings: bean leaf discs sprayed
# Description: as §1, §2, §3
# Discs of bean leaves (Phaseolus vulgaris) which are infested by all stages of the greenhouse red spider mite (Tetranychus urticae) are sprayed with an active compound preparation of the desired concentration.
# After the desired period of time, the effect in % is determined. 100% means that all of the spider mites have been killed; 0% means that none of the spider mites have been killed.
# Spodoptera frugiperda = Spodoptera frugiperda larvae test; settings: cabbage leaves sprayed
# Description: as §1, §2, §3
# Cabbage leaves (Brassica oleracea) are treated by being sprayed with the preparation of active compound of the desired concentration and are populated with larvae of the armyworm (Spodoptera frugiperda) while the leaves are still moist.
# After the desired period of time, the kill in % is determined. 100% means that all caterpillars have been killed; 0% means that none of the caterpillars have been killed. The kill rates determined are entered into Colby's formula (see above).
# Myzus persicae [2] = experiment: Myzus persicae test on bell pepper; settings: 0.8 g/ha, bell-pepper plants sprayed
# Description: Solvent: 7 parts by weight of dimethylformamide
# Emulsifier: 2 parts by weight of alkylaryl polyglycol ether
# as §3
# Bell-pepper plants (Capsicum annuum) which are heavily infested by the green peach aphid (Myzus persicae) are treated by spraying with the active compound preparation of the desired concentration.
# as §4
smiles,measurement,setting,value
CC1(C)C(C=C(Cl)Cl)C1C(=O)OC(C#N)c1cccc(Oc2ccccc2)c1 (stereo not drawn) [alpha-cypermethrin],Kill in % after 1d,Myzus persicae [1]; 0.16 g/ha,30%
CC1(C)C(C=C(Cl)Cl)C1C(=O)OC(C#N)c1ccc(F)c(Oc2ccccc2)c1 (stereo not drawn) [beta-cyfluthrin],Kill in % after 1d,Myzus persicae [1]; 0.16 g/ha,40%
same,Kill in % after 2d,Phaedon cochleariae; 0.8 g/ha,50%
same,Kill in % after 2d,Phaedon cochleariae; 4 g/ha,83%
Cc1c(COC(=O)C2C(/C=C(\Cl)C(F)(F)F)C2(C)C)cccc1-c1ccccc1 (stereo not drawn) [bifenthrin],Kill in % after 6d,Myzus persicae [1]; 0.032 g/ha,0%
same,Kill in % after 1d,Myzus persicae [1]; 0.16 g/ha,20%
same,Kill in % after 2d,Tetranychus urticae; 4 g/ha,30%
same,Kill in % after 2d,Phaedon cochleariae; 4 g/ha,67%
"O=C1C=C(N(CCF)Cc2ccc(Cl)nc2)CO1 [compound (I-4), 4-{[(6-chloropyrid-3-yl)methyl](2-fluoroethyl)amino}furan-2(5H)-one]",Kill in % after 1d,Myzus persicae [1]; 4 g/ha,30%
same,Kill in % after 2d,Tetranychus urticae; 100 g/ha,0%
same,Kill in % after 6d,Phaedon cochleariae; 20 g/ha,0%
same,Kill in % after 6d,Phaedon cochleariae; 100 g/ha,0%
same,Kill in % after 2d,Spodoptera frugiperda; 20 g/ha,0%
same,Kill in % after 2d,Spodoptera frugiperda; 100 g/ha,0%
"O=C1C=C(N(Cc2ccc(Cl)nc2)CC(F)F)CO1 [compound (I-5), 4-{[(6-chloropyrid-3-yl)methyl](2,2-difluoroethyl)amino}furan-2(5H)-one]",Kill in % after 6d,Myzus persicae [2],45%
same,Kill in % after 1d,Myzus persicae [1]; 0.8 g/ha,10%
same,Kill in % after 6d,Myzus persicae [1]; 0.8 g/ha,10%
same,Kill in % after 2d,Phaedon cochleariae; 20 g/ha,0%
same,Kill in % after 2d,Spodoptera frugiperda; 20 g/ha,0%
same,Kill in % after 2d,Spodoptera frugiperda; 100 g/ha,0%
"CN(Cc1cnc(Cl)c(F)c1)C1=CC(=O)OC1 [compound (I-6), 4-{[(6-chloro-5-fluorpyrid-3-yl)methyl](methyl)amino}furan-2(5H)-one]",Kill in % after 2d,Phaedon cochleariae; 4 g/ha,0%
same,Kill in % after 2d,Phaedon cochleariae; 100 g/ha,0%
same,Kill in % after 6d,Phaedon cochleariae; 100 g/ha,0%
same,Kill in % after 2d,Spodoptera frugiperda; 20 g/ha,0%
same,Kill in % after 2d,Spodoptera frugiperda; 100 g/ha,0%
CC1(C)C(C=C(Cl)Cl)C1C(=O)OC(C#N)c1cccc(Oc2ccccc2)c1 (stereo not drawn) [cypermethrin],Kill in % after 1d,Myzus persicae [1]; 0.16 g/ha,10%
same,Kill in % after 1d,Myzus persicae [1]; 0.8 g/ha,20%
CC1(C)[C@H](C(=O)OC(C#N)c2cccc(Oc3ccccc3)c2)[C@@H]1C=C(Br)Br (stereo partly drawn) [deltamethrin],Kill in % after 6d,Myzus persicae [1]; 0.032 g/ha,0%
same,Kill in % after 2d,Spodoptera frugiperda; 0.8 g/ha,50%
CC1(C)[C@H](C(=O)O[C@@H](C#N)c2cccc(Oc3ccccc3)c2)[C@@H]1/C=C(\Cl)C(F)(F)F [gamma-cyhalothrin],Kill in % after 1d,Myzus persicae [1]; 0.16 g/ha,0%
same,Kill in % after 2d,Spodoptera frugiperda; 4 g/ha,67%
CC1(C)C(/C=C(\Cl)C(F)(F)F)C1C(=O)OC(C#N)c1cccc(Oc2ccccc2)c1 (stereo not drawn) [lambda-cyhalothrin],Kill in % after 1d,Myzus persicae [1]; 0.032 g/ha,0%
same,Kill in % after 2d,Tetranychus urticae; 4 g/ha,0%
same,Kill in % after 2d,Phaedon cochleariae; 0.16 g/ha,33%
same,Kill in % after 2d,Spodoptera frugiperda; 4 g/ha,33%
CC1(C)[C@H](C=C(Cl)Cl)[C@H]1C(=O)OCc1c(F)c(F)cc(F)c1F [transfluthrin],Kill in % after 6d,Myzus persicae [2],0%

# From patent US8828906B2, “Active compound combinations having insecticidal and acaricidal properties” (Bayer CropScience AG, priority 2009, dated 2014)
